Laboratory results taken from the NIST ThermoML archive (doi:10.1016/j.fluid.2014.12.029).
± gives the expanded uncertainty stated by the source.

Key:
[1] = Liquid; for mass density: 298.15 K, 101.33 kPa, Pycnometric method; for Normal boiling temperature: Ebulliometric method (Recirculating still)
[2] = Boiling temperature at pressure P; details: Liquid, Ebulliometric method (Recirculating still)
[3] = refractive index (Na D-line) (dimensionless); details: 298.15 K; 101.33 kPa; Liquid; Standard Abbe refractometry

mass density [1] [kg/m3]	Normal boiling temperature [1] [°C]	Boiling temperature at pressure P ([2]; 8.01 kPa) [°C]	Boiling temperature at pressure P ([2]; 20 kPa) [°C]	Boiling temperature at pressure P ([2]; 30 kPa) [°C]	Boiling temperature at pressure P ([2]; 34.84 kPa) [°C]	Boiling temperature at pressure P ([2]; 39.85 kPa) [°C]	Boiling temperature at pressure P ([2]; 50 kPa) [°C]	Boiling temperature at pressure P ([2]; 55.02 kPa) [°C]	refractive index [3]	Compound
837.1 ± 0.8	119.44 ± 0.2	49.24 ± 0.21	70.88 ± 0.2	81.73 ± 0.2	85.81 ± 0.2	89.66 ± 0.2	96.50 ± 0.2	99.39 ± 0.2	1.387 ± 0.0007	CCCCOCOC [1-(methoxymethoxy)-butane]
805.2 ± 0.7									1.3967 ± 0.0007	CCCCO [butan-1-ol]
799.3 ± 0.7	97.16 ± 0.2								1.3833 ± 0.0007	CCCO [propan-1-ol]
